Earlier results on 38 compounds are cited in publication PMC7520419 (The AAPS Journal, 2020).

Structures can show the parent of a compound that is named as a salt.
For Observed AUC(0-inf) Fasted in this document: test concentration or dose not given here.
For Observed AUC(0-inf) Fed in this document: test concentration or dose not given here.
For Observed Cmax Fasted in this document: test concentration or dose not given here.
For Observed Cmax Fed in this document: test concentration or dose not given here.

For one data set the following is noted: Model 2; fasted; ref published clinical data (Table I); cited from earlier work.
In the case of `C#C[C@]1(O)CC[C@H]2[C@@H]3CCC4=Cc5oncc5C[C@]4(C)[C@H]3CC[C@@]21C` [Danazol], the “Observed AUC(0-inf) Fasted” value is 231 ng·h/mL and the “Observed Cmax Fasted” value is 37 ng/mL.

Staying with this data set, now noted: Model 2; fed; ref published clinical data (Table I); cited from earlier work.
As for `C#C[C@]1(O)CC[C@H]2[C@@H]3CCC4=Cc5oncc5C[C@]4(C)[C@H]3CC[C@@]21C` [Danazol], the “Observed AUC(0-inf) Fed” value is 668 ng·h/mL and the “Observed Cmax Fed” value is 101 ng/mL.

Staying with this data set, now noted: active metabolite measured; fed vs fasted; compiled by literature search; cited from earlier work.
As to `COC(=O)[C@H](c1ccccc1Cl)N1CCc2sccc2C1` [Clopidogrel bisulfate], the “Food Effect” value was “None (none if no significant change in AUC and Cmax with food)”.

Staying with this data set, now noted: clinically observed PK change (AUC, Cmax) fed vs fasted; compiled by literature search; cited from earlier work.
`Cc1c(OCC(F)(F)F)ccnc1C[S+]([O-])c1nc2ccccc2[nH]1` (stereo not drawn) [Lansoprazole]: the “Food Effect” value is “None (none if no significant change in AUC and Cmax with food)”.
Turning to `CCCCC1=NC2(CCCC2)C(=O)N1Cc1ccc(-c2ccccc2-c2nnn[nH]2)cc1` [Irbesartan], the “Food Effect” value was “None (none if no significant change in AUC and Cmax with food)”.
Regarding `CCCCC(C)(O)C/C=C/[C@H]1[C@H](O)CC(=O)[C@@H]1CCCCCCC(=O)OC` (mixture of isomers) [Misoprostol], the “Food Effect” value is “None (none if no significant change in AUC and Cmax with food)”.
`CC1=C(/C=C/C(C)=C/C=C/C(C)=C\C(=O)O)C(C)(C)CCC1` [Isotretinoin]: the “Food Effect” value was “Positive (positive if the ratio of fed > fasted)”.
Turning to `CCCCCCCNC(=O)Oc1ccc2c(c1)[C@]1(C)CCN(C)[C@@H]1N2C` [Eptastigmine], the “Food Effect” value was “Negative (negative if ratio fasted > fed)”.
As for `NNc1nncc2ccccc12` [Hydralazine], the “Food Effect” value is “Negative (negative if ratio fasted > fed)”.
With `O=C1CCc2ccc(OCCCCN3CCN(c4cccc(Cl)c4Cl)CC3)cc2N1` [Aripiprazole], the “Food Effect” value was “None (none if no significant change in AUC and Cmax with food)”.
As to `COc1cc(C)c(/C=C/C(C)=C/C=C/C(C)=C/C(=O)O)c(C)c1C` [Acitretin], the “Food Effect” value is recorded as “Positive (positive if the ratio of fed > fasted)”.
As to `NC(=O)c1ncn([C@@H]2O[C@H](CO)[C@@H](O)[C@H]2O)n1` [Ribavirin], the “Food Effect” value was “Positive (positive if the ratio of fed > fasted)”.
As to `Nc1nc(NC2CC2)c2ncn([C@H]3C=C[C@@H](CO)C3)c2n1` [Abacavir sulfate], the “Food Effect” value was “None (none if no significant change in AUC and Cmax with food)”.
Consider `CC(C)Cn1cnc2c(N)nc3ccccc3c21` [Imiquimod], for which the “Food Effect” value was “None (none if no significant change in AUC and Cmax with food)”.
For the compound `CSc1nc2cc(Cl)c(Oc3cccc(Cl)c3Cl)cc2[nH]1` [Triclabendazole], the “Food Effect” value is “Positive (positive if the ratio of fed > fasted)”.
On to `O=[N+]([O-])O[C@@H]1CO[C@H]2[C@@H]1OC[C@@H]2O` [Isosorbide Mononitrite], for which the “Food Effect” value is “None (none if no significant change in AUC and Cmax with food)”.
On to `O=C1Cc2cc(CCN3CCN(c4nsc5ccccc45)CC3)c(Cl)cc2N1` [Ziprasidone hydrochloride], for which the “Food Effect” value is recorded as “Positive (positive if the ratio of fed > fasted)”.
In the case of `Nc1nc(O)c2ncn(COC(CO)CO)c2n1` [Ganciclovir], the “Food Effect” value was “None (none if no significant change in AUC and Cmax with food)”.
As to `CC(C)C[C@H]1C(=O)N2CCC[C@H]2[C@]2(O)O[C@](NC(=O)[C@@H]3C=C4c5cccc6[nH]c(Br)c(c56)C[C@H]4N(C)C3)(C(C)C)C(=O)N12` [Bromocriptine], the “Food Effect” value is “None (none if no significant change in AUC and Cmax with food)”.
As for `C#Cc1cccc(Nc2ncnc3cc(OCCOC)c(OCCOC)cc23)c1` [Erlotinib], the “Food Effect” value is “Positive (positive if the ratio of fed > fasted)”.
As for `CCOc1ccccc1OCCN[C@H](C)Cc1ccc(OC)c(S(N)(=O)=O)c1` [Tamsulosin hydrochloride], the “Food Effect” value is recorded as “Negative (negative if ratio fasted > fed)”.
`CC(C)c1c(C(=O)Nc2ccccc2)c(-c2ccccc2)c(-c2ccc(F)cc2)n1CC[C@@H](O)C[C@@H](O)CC(=O)O` [Atorvastatin]: the “Food Effect” value was “None (none if no significant change in AUC and Cmax with food)”.
With `CCCCCOC(=O)Nc1nc(=O)n([C@@H]2O[C@H](C)[C@@H](O)[C@H]2O)cc1F` [Capecitabine], the “Food Effect” value is “Negative (negative if ratio fasted > fed)”.
Regarding `O=C1C(O)=C([C@H]2CC[C@H](c3ccc(Cl)cc3)CC2)C(=O)c2ccccc21` [Atovaquone], the “Food Effect” value is given as “Positive (positive if the ratio of fed > fasted)”.
Take `O=C1Nc2ccc(Cl)cc2[C@@](C#CC2CC2)(C(F)(F)F)O1` [Efavirenz]: the “Food Effect” value is given as “Positive (positive if the ratio of fed > fasted)”.
Consider `CC1COc2c(N3CCN(C)CC3)c(F)cc3c(=O)c(C(=O)O)cn1c23` (stereo not drawn) [Ofloxacin], for which the “Food Effect” value is “None (Absorption delayed but extent not substantially affected) (none if no significant change in AUC and Cmax with food)”.
With `CC(=O)N(CCC(CCN1CCCCC1)(C(N)=O)c1ccccc1Cl)C(C)C` (stereo not drawn) [Bidisomide], the “Food Effect” value was “Negative (negative if ratio fasted > fed)”.
Turning to `CCCS(=O)(=O)Nc1ccc(F)c(C(=O)c2c[nH]c3ncc(-c4ccc(Cl)cc4)cc23)c1F` [Vemurafenib], the “Food Effect” value was “Positive (positive if the ratio of fed > fasted)”.
Take `C[C@@H](Oc1cc(-c2cnn(C3CCNCC3)c2)cnc1N)c1c(Cl)ccc(F)c1Cl` [Crizotinib]: the “Food Effect” value is “None (none if no significant change in AUC and Cmax with food)”.
Turning to `CCCSc1ccc2nc(NC(=O)OC)[nH]c2c1` [Albendazole], the “Food Effect” value was “Positive (positive if the ratio of fed > fasted)”.
As for `CCCCc1oc2ccccc2c1C(=O)c1cc(I)c(OCCN(CC)CC)c(I)c1` [Amiodarone], the “Food Effect” value is on record as “Positive (positive if the ratio of fed > fasted)”.
As for `CC[C@@H]([C@H](C)O)n1ncn(-c2ccc(N3CCN(c4ccc(OC[C@@H]5CO[C@@](Cn6cncn6)(c6ccc(F)cc6F)C5)cc4)CC3)cc2)c1=O` [Posaconazole], the “Food Effect” value was “Positive (positive if the ratio of fed > fasted)”.
As for `COc1cc2nc(N(C)CCCNC(=O)C3CCCO3)nc(N)c2cc1OC` (stereo not drawn) [Alfuzosine], the “Food Effect” value is given as “Positive (positive if the ratio of fed > fasted)”.
For the compound `CCc1nn(CCCN2CCN(c3cccc(Cl)c3)CC2)c(=O)n1CCOc1ccccc1` [Nefazodone hydrochloride], the “Food Effect” value is reported as “Negative (negative if ratio fasted > fed)”.
For `CC(C)c1nc(N(C)S(C)(=O)=O)nc(-c2ccc(F)cc2)c1/C=C/[C@@H](O)C[C@@H](O)CC(=O)O` [Rosuvastatin], the “Food Effect” value is “Negative (negative if ratio fasted > fed)”.
Consider `CN(C)CCc1c[nH]c2ccc(C[C@H]3COC(=O)N3)cc12` [Zolmitriptan], for which the “Food Effect” value was “None (none if no significant change in AUC and Cmax with food)”.
With `COc1cccc(CCc2ccccc2OCC(CN(C)C)OC(=O)CCC(=O)O)c1` (stereo not drawn) [Sarpogrelate], the “Food Effect” value is recorded as “Negative (negative if ratio fasted > fed)”.
Take `N#CC[C@H](C1CCCC1)n1cc(-c2ncnc3[nH]ccc23)cn1` [Ruxolitinib]: the “Food Effect” value was “None (none if no significant change in AUC and Cmax with food)”.

Still in this data set, the particulars now being: prodrug measured; fed vs fasted; compiled by literature search; cited from earlier work.
In the case of `COC(=O)[C@H](c1ccccc1Cl)N1CCc2sccc2C1` [Clopidogrel bisulfate], the “Food Effect” value was “Positive (positive if the ratio of fed > fasted)”.

Still in this data set, the particulars now being: ref drug label; cited from earlier work.
For the compound `NS(=O)(=O)c1cc(C(=O)O)c(NCc2ccco2)cc1Cl` [Furosemide], the “food effect (FE) direction” value was “negative FE”.
